Assay results: patent US20250092014A1, “COMPOUNDS AND METHODS OF ACTIVATING LIPOPROTEIN LIPASE” (Metrea Biosciences, Inc., priority 2021, published 2025)

What follows are molecules tested against T1, LPL:sGPIHBP1 complex (Homo sapiens, UniProt P06858) (assay: RB assay (LPL:sGPIHBP1 pre-incubated with ANGPTL4, RB substrate)). Details: read-out: RB qAC50.
T1 sequence (P06858 28-475): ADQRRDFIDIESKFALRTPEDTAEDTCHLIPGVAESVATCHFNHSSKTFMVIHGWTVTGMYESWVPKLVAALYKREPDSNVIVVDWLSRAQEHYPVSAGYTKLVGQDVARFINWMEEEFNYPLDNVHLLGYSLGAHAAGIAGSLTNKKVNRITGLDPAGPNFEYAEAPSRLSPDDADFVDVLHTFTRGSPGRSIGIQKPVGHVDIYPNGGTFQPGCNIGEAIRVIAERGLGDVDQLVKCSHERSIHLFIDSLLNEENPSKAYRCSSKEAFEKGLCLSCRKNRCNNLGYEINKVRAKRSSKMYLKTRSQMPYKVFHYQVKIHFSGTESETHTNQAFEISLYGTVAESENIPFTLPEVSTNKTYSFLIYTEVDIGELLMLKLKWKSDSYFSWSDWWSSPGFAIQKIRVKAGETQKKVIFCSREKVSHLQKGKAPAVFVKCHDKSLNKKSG
T1 sequence (Q8IV16 21-151 partner limits assumed): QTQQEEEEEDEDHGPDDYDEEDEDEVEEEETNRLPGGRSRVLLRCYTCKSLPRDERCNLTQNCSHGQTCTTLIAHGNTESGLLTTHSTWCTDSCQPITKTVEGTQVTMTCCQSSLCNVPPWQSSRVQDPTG
Assay type: biochemical
Method: The assay was performed in black 1536-well plates using purified proteins. To identify compounds that stimulate LPL activity either by directly activating LPL or by inhibiting the antagonist ANGPTL4, the LPL:sGPIHBP1 complex was pre-incubated with ANGPTL4 to decrease LPL activity by 80%. After a 60 min pre-incubation, the reaction was started by adding the RB substrate. 30 min after RB addition, the enzymatic reaction was stopped using SDS. Fluorescence intensity was measured 2 h after stopping the reaction.
20 or 40 nl of compound solution in 100% DMSO were placed in test plate. Then was added LPL:sGPIHBP1 to all wells (diluted in assay buffer to 5 nM; 2 μl/well). This was followed by an addition of ANGPTL4 to compounds and neutral controls (diluted in assay buffer to 20 nM; 1 μl/well). A buffer solution was added to the stimulator control (1 μl/well). The plates were then centrifuged and pre-incubated for 60 min at RT. The reaction was started by adding substrate to all wells (diluted in assay buffer to 40 μM, 1 μl/well). The plated were centrifuged (800 rpm for 1 min) and incubated 30 min at RT (=reaction time). The reaction was stopped by adding SDS to all wells (diluted in water to 2.5%, 2 μl/well); incubated 2 h at RT. The fluorescence intensity (ex 540 nm/em 590 nm) was measured on a Pherastar (BMG) using 5 flashes.

Structure (SMILES)	EC50 [µM]
O=C(O)Cc1ccc(F)cc1NC(=O)c1ccc(N2CCCCC2)c(NC(=O)c2nn(CC(F)(F)F)c3ccccc23)c1 [Compound 38, 2-(4-fluoro-2-(4-(piperidin-1-yl)-3-(1-(2,2,2-trifluoroethyl)-1H-indazole-3-carboxamido)benzamido)phenyl)acetic acid]	3.6
O=C(O)Cc1cc(F)ccc1NC(=O)c1ccc(N2C3CCC2CC3)c(NC(=O)c2nn(CC(F)(F)F)c3ccccc23)c1 [Example 54]	6.9
O=C(O)Cc1cc(F)ccc1NC(=O)c1ccc(N2CCCCC2)c(NC(=O)c2nn(CC3CCCOC3)c3ccccc23)c1 (stereo not shown) [Compound 133, 2-(5-fluoro-2-(4-(piperidin-1-yl)-3-(1-((tetrahydro-2H-pyran-3-yl)methyl)-1H-indazole-3-carboxamido)benzamido)phenyl)acetic acid]	4.2
CC(C)Cn1nc(C(=O)Nc2cc(C(=O)Nc3ccc(F)cc3CC(=O)O)ccc2N2CCCCC2)c2ccccc21 [Compound 95, 2-(5-fluoro-2-(3-(1-isobutyl-1H-indazole-3-carboxamido)-4-(piperidin-1-yl)benzamido)phenyl)acetic acid]	5
COCCn1nc(C(=O)Nc2cc(C(=O)Nc3ccc(F)cc3CC(=O)O)ccc2N2CCCCC2)c2ccccc21 [Compound 105, 2-(5-fluoro-2-(3-(1-(2-methoxyethyl)-1H-indazole-3-carboxamido)-4-(piperidin-1-yl)benzamido)phenyl)acetic acid]	14
NC(=O)C1CCCCN1c1ccc(C(=O)Nc2ccc(F)cc2CC(=O)O)cc1NC(=O)c1nn(CC(F)(F)F)c2ccccc12 (stereo not shown) [Example 71]	> 7.1
O=C(O)Cc1cc(F)ccc1NC(=O)c1ccc(N2CCCCC2)c(NC(=O)c2nn(CCO)c3ccccc23)c1 [Compound 99, 2-(5-fluoro-2-(3-(1-(2-hydroxyethyl)-1H-indazole-3-carboxamido)-4-(piperidin-1-yl)benzamido)phenyl)acetic acid]	> 25
CC(C1CCOCC1)n1nc(C(=O)Nc2cc(C(=O)Nc3ccc(F)cc3CC(=O)O)ccc2N2CCCCC2)c2ccccc21 (stereo not shown) [Compound 148, 2-(5-fluoro-2-(4-(piperidin-1-yl)-3-(1-(1-(tetrahydro-2H-pyran-4-yl)ethyl)-1H-indazole-3-carboxamido)benzamido)phenyl)acetic acid]	> 25
O=C(O)Cc1cc(F)ccc1NC(=O)c1ccc(N2CCCCC2)c(NC(=O)c2nn(CC(F)F)c3ccccc23)c1 [Compound 96, 2-(2-(3-(1-(2,2-difluoroethyl)-1H-indazole-3-carboxamido)-4-(piperidin-1-yl)benzamido)-5-fluorophenyl)acetic acid]	4.7
O=C(O)Cc1cc(F)ccc1NC(=O)c1ccc(N2CCS(=O)(=O)CC2)c(NC(=O)c2nn(CC(F)(F)F)c3ccccc23)c1 [Example 66]	> 25
Cc1cccc2c1c(C(=O)Nc1cc(C(=O)Nc3ccc(F)cc3CC(=O)O)ccc1N1CCCCC1)nn2CC(F)(F)F [Compound 141, 2-(5-fluoro-2-(3-(4-methyl-1-(2,2,2-trifluoroethyl)-1H-indazole-3-carboxamido)-4-(piperidin-1-yl)benzamido)phenyl)acetic acid]	> 25
O=C(O)Cc1cc(F)ccc1NC(=O)c1ccc(N2CCCCC2)c(NC(=O)c2nn(CC3CCOCC3)c3ccccc23)c1 [Compound 104, 2-(5-fluoro-2-(4-(piperidin-1-yl)-3-(1-((tetrahydro-2H-pyran-4-yl)methyl)-1H-indazole-3-carboxamido)benzamido)phenyl)acetic acid]	3.2
Cc1cc(N2CCCCC2)c(NC(=O)c2nn(CC(F)(F)F)c3ccccc23)cc1C(=O)Nc1ccc(F)cc1CC(=O)O [Compound 55, 2-(5-fluoro-2-(2-methyl-4-(piperidin-1-yl)-5-(1-(2,2,2-trifluoroethyl)-1H-indazole-3-carboxamido)benzamido)phenyl)acetic acid]	5
O=C(O)Cc1cc(F)ccc1NC(=O)c1ccc(N2CCCCC2)c(NC(=O)c2nn(CC(F)(F)F)c3ncccc23)c1 [Compound 113, 2-(5-fluoro-2-(4-(piperidin-1-yl)-3-(1-(2,2,2-trifluoroethyl)-1H-pyrazolo[3,4-b]pyridine-3-carboxamido)benzamido)phenyl)acetic acid]	9
O=C(O)Cc1cc(F)ccc1NC(=O)c1ccc(N2CCCCC2)c(NC(=O)c2nn(CC(F)(F)F)c3c2CCC3)c1 [Compound 145, 2-(5-fluoro-2-(4-(piperidin-1-yl)-3-(1-(2,2,2-trifluoroethyl)-1,4,5,6-tetrahydrocyclopenta[c]pyrazole-3-carboxamido)benzamido)phenyl)acetic acid]	15
O=C(O)Cc1cc(F)ccc1NC(=O)c1cnc(N2CCCCC2)c(NC(=O)c2nn(CC(F)(F)F)c3ccccc23)c1 [Compound 44, 2-(5-fluoro-2-(6-(piperidin-1-yl)-5-(1-(2,2,2-trifluoroethyl)-1H-indazole-3-carboxamido)nicotinamido)phenyl)acetic acid]	> 25
O=C(O)Cc1cc(F)ccc1NC(=O)c1ccc(N2CCCCC2)c(NC(=O)c2cn(CC(F)(F)F)c3ccccc23)c1 [Compound 128, 2-(5-fluoro-2-(4-(piperidin-1-yl)-3-(1-(2,2,2-trifluoroethyl)-1H-indole-3-carboxamido)benzamido)phenyl)acetic acid]	0.66
O=C(O)Cc1cc(F)ccc1NC(=O)c1ccc(N2CCC(O)CC2)c(NC(=O)c2nn(CC(F)(F)F)c3ccccc23)c1 [Example 75]	> 25
O=C(O)Cc1cc(F)ccc1NC(=O)c1ccc(N2CCCCC2)c(NC(=O)c2nn(CC3CCNCC3)c3ccccc23)c1 [Compound 103, 2-(5-fluoro-2-(4-(piperidin-1-yl)-3-(1-(piperidin-4-ylmethyl)-1H-indazole-3-carboxamido)benzamido)phenyl)acetic acid]	> 25
N#CC1CCN(c2ccc(C(=O)Nc3ccc(F)cc3CC(=O)O)cc2NC(=O)c2nn(CC(F)(F)F)c3ccccc23)CC1 [Example 48]	> 25
O=C(O)Cc1cc(F)ccc1NC(=O)c1ccc(N2CCCCC2)c(NC(=O)c2cc(-c3ccccc3)n(CC(F)(F)F)n2)c1 [Compound 116, 2-(5-fluoro-2-(3-(5-phenyl-1-(2,2,2-trifluoroethyl)-1H-pyrazole-3-carboxamido)-4-(piperidin-1-yl)benzamido)phenyl)acetic acid]	23
O=C(O)Cc1cc(F)ccc1NC(=O)c1ccc(N2CC3CCC2C3)c(NC(=O)c2nn(CC(F)(F)F)c3ccccc23)c1 (racemic) [Example 58]	18
O=C(O)Cc1cc(F)ccc1NC(=O)c1ccc(N2CCCCC2)c(NC(=O)c2nn(CC(F)(F)F)c3ccncc23)c1 [Compound 107, 2-(5-fluoro-2-(4-(piperidin-1-yl)-3-(1-(2,2,2-trifluoroethyl)-1H-pyrazolo[4,3-c]pyridine-3-carboxamido)benzamido)phenyl)acetic acid]	> 7.1
O=C(O)Cc1cc(F)ccc1NC(=O)c1ccc(N2CCCC2)c(NC(=O)c2nn(CC(F)(F)F)c3ccccc23)c1 [Example 50]	24
Cc1nc(C(=O)Nc2cc(C(=O)Nc3ccc(F)cc3CC(=O)O)ccc2N2CCCCC2)n2ccccc12 [Compound 110, 2-(5-fluoro-2-(3-(1-methylimidazo[1,5-a]pyridine-3-carboxamido)-4-(piperidin-1-yl)benzamido)phenyl)acetic acid]	> 7.1
